The record followed here is patent publication US20100206318A1, “FILTER FOR A TOBACCO PRODUCT” (BIOHIT OYJ, priority 2007, published 2010).

A short description of the assay: acetaldehyde in saliva of testees during smoking through cigarette holder with filter (headspace gas chromatography). The class given is in vivo, human. As to conditions: FIG. 1. From the text: The entire filter of Marlboro Red was removed or, in some tests, 2-3 mm of the original filter was left in the cigarette.
In the tests, ready commercial cigarette holders/mouthpieces of Denicotea, www.denicotea.de were used. In the cigarette holders/mouthpieces, plastic cylinder-shaped “containers” were used, the filtering material being packed in the containers. The original content (intended for the removal of nicotine) of the containers was removed and replaced with the material that was used in the study. The outer dimensions of the container were: diameter 8 mm and length 35 mm.
Cellulose wadding (c. 100 mg), filter paper (Whattman), Commercial filters: Smart (the importer: Altadia Finland Oy) and Ventti (Philip Morris Finland Oy),
Cysteine was dissolved in distilled water, 30-180 mg of L-Cysteine/1 ml. The manufacturer: Fluka, 30089.
The filter material that had been packed in plastic cylinders was moistened with a water-cysteine solution (50-250 μl), and the filter container thus made was placed in the Denicotea cigarette holder. After this, the testees smoked the cigarettes that had been placed in the mouthpieces. During smoking, saliva samples were collected from those participating in the tests and the acetaldehyde in the saliva was analyzed by gas chromatography, Perkin-Elmer, HS40, headspace Gas Chromatograph.

SMILES strings stand for the structures.

Regarding `N[C@@H](CS)C(=O)O` [cysteine, L-Cysteine], the “filterability, dependence on amount” value is given as “dependent on the amount of cysteine”.
